Assay results from US20060013871A1 (priority 2003, published 2006).

Assay: Particle size analysis in water suspension, Beckman LS230
Type: physicochemical
Conditions: feedstock of Example 5, water suspension, Beckman Coulter LS230
Protocol: The vessel was charged with 405 g of CO2. The agitator rpm was 1,776. The mixing process was run for 1 hr. The final temperature and pressure were 28° C. and 1,434 psig, respectively.
Particle size analysis was done in water suspension using Beckman LS230, however it is known that in an aqueous medium Poloxamer is likely to dissolve.

d16 particle size of feedstock: 21.8 micron
d50 particle size of feedstock: 41.21 microns
d84 particle size of feedstock: 71.05 microns
Structure (SMILES): CC(C)Cc1ccc(C(C)C(=O)O)cc1 (stereo not drawn) [Ibuprofen]
